The values that follow come from the pKa sets of Baltruschat and Czodrowski (2020).

Experiment in series [1]: not given
This is another data set of the same source.

As to `CCCCCCCCCC(=O)OC(CC(=O)O)C[N+](C)(C)C` (stereo unspecified), the pKa came out at 3.65.

As to `O=C(O)c1cccnc1`, the pKa is 2.05.

On to `CCn1nc(C(=O)O)c(=O)c2cc3c(cc21)OCO3`, for which the pKa in series [1] worked out at 4.7.

Regarding `O=C(c1ccccc1)c1ccc2n1CCC2C(=O)O` (stereo unspecified), the pKa in series [1] was determined as 3.5.

`Cc1cccc(Nc2ccccc2C(=O)O)c1C`: in series [1], the pKa is 4.5.

`CCCCCCCC(=O)OC(CC(=O)O)C[N+](C)(C)C` (stereo unspecified) showed a pKa of 3.6.

For `COc1ccc2c3c1O[C@H]1[C@@H](O)C=CC4[C@@H](C2)NCC[C@@]341` (stereo partly specified), the pKa came out at 9.23.

Molecule `CN(C)[C@@H]1C(O)=C(C(N)=O)C(=O)[C@@]2(O)C(O)=C3C(=O)c4c(O)cccc4[C@@](C)(O)C3[C@H](O)C12` (stereo partly specified) gave a pKa of 7.32.

As for `Cc1ccc(C(=O)c2ccc(CC(=O)O)n2C)cc1`, the pKa in series [1] worked out at 3.5.

`Nc1ccc(C(=O)O)cc1` returned a pKa of 4.87.

Molecule `CCCC(=O)OC(CC(=O)O)C[N+](C)(C)C` (stereo unspecified) registered a pKa of 3.56.

A word on the pKa: it is the negative logarithm of the acid dissociation constant. A higher pKa goes with a group that holds its proton tightly.
